What follows are compounds tested against Axl phosphorylation in 293MSR-AxlWT6 cells (Homo sapiens (Human), UniProt P30530) (assay: Cellular Axl phosphorylation ELISA assay (Gas6-stimulated 293MSR-AxlWT6 cells)). Conditions: Table 4A, read-out: CELL AXL IC50.
Sequence of Axl phosphorylation in 293MSR-AxlWT6 cells (P30530 26-894): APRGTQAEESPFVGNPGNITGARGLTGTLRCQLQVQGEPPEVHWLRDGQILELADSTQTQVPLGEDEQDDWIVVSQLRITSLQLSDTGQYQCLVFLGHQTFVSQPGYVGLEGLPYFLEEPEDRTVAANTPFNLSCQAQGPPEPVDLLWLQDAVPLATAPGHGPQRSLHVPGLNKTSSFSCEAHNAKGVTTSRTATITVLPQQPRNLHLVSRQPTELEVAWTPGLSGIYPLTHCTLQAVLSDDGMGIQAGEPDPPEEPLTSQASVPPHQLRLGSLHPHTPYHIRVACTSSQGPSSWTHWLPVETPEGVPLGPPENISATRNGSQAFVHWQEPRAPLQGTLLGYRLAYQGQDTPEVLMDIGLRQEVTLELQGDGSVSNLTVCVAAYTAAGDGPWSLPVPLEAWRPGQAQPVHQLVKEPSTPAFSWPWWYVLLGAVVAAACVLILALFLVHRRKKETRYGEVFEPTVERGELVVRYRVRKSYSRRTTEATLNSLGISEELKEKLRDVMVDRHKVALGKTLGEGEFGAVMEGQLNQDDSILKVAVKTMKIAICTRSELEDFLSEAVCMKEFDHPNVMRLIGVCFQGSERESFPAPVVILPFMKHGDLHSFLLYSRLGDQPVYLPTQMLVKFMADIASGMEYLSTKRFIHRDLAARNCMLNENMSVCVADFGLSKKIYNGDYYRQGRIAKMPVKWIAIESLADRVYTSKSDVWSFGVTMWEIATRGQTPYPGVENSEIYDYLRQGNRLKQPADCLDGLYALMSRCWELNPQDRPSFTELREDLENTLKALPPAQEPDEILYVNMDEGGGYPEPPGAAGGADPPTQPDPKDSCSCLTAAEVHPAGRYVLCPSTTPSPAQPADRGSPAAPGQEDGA
Format: cell-based
Procedure: Cellular Axl Phosphorylation ELISA Assay
After 6-7 hrs in tissue culture incubator at 37° C. 5% CO2, medium was removed, serum-free medium was added (with 0.04% bovine serum albumin) and plates were returned to incubator where they remained overnight. […] Media was then removed and lysis buffer was added to wells and shaken at 4° C. for 30 min to generate protein lysates. Subsequently, phosphorylation of Axl was assessed by a sandwich ELISA method using a DuoSet IC Human Phospho-Axl ELISA assay kit (R&D System), an immobilized mouse anti-human Axl antibody and an anti-phospho-tyrosine-HRP antibody as a detection antibody. Antibody-coated plates were (a) incubated in presence of protein lysates at room temperature for 2 hrs, (b) washed seven times in 0.1% Tween 20 in PBS, (c) incubated with secondary antibody (a horseradish peroxidase-conjugated […]) for 2 hrs, (d) washed seven times again, (e) TMB peroxidase substrate (Bio-Rad) was added to initiate a colorimetric reaction and stopped by adding 0.2 N H2SO4, and (f) measured at OD 450 nm using a spectrophotometer. IC50 values were calculated by concentration-response curve fitting using a four-parameter analytic method and reported in μM.
For Table 4B, IC50 values were calculated by concentration-response curve fitting using a four-parameter analytic method and reported in nM.
`N#CC1(COc2nc(C(=O)NCC(F)(F)F)cc(N3CCC(COc4cncnc4N)CC3)n2)CC1` [Example 31, 6-(4-{[(4-aminopyrimidin-5-yl)oxy]methyl}piperidin-1-yl)-2-[(1-cyanocyclopropyl)methoxy]-N-(2,2,2-trifluoroethyl) pyrimidine-4-carboxamide] showed an IC50 of 12.6 nM. Compound “6-{4-[(3-amino- 1H-indazol-4- yl)oxy]piperidin-1- yl}-N- (bicyclo[1.1.1]pent- 1-yl)-2-[(1- cyanocyclopropyl) methoxy] pyrimidine- 4-carboxamide [Example 19]” has an IC50 of 24.7 nM. In the case of `N#C[C@@H]1C[C@@H]1COc1nc(C(=O)NC23CC(C2)C3)cc(N2CCC(c3n[nH]c4nccc(OCCO)c34)CC2)n1` [Example 65, N-(bicyclo[1.1.1]pent-1-yl)-2-{[(1S,2R)-2-cyanocyclopropyl]methoxy}-6-{4-[4-(2-hydroxyethoxy)-1H-pyrazolo[3,4-b]pyridin-3-yl]piperidin-1-yl}pyrimidine-4-carboxamide], the IC50 is reported as 1.86 nM. With `COC[C@@H](C)Oc1nc(C(=O)NC2(C#N)CCC2)cc(N2CCC(c3n[nH]c4ncccc34)CC2)n1` [Example 14, N-(1-cyanocyclobutyl)-2-{[(2R)-1-methoxypropan-2-yl]oxy}-6-[4-(1H-pyrazolo[3,4-b]pyridin-3-yl)piperidin-1-yl]pyrimidine-4-carboxamide] the IC50 was 12.4 nM. For `N#C[C@@H]1C[C@@H]1COc1nc(C(=O)NC23CC(C2)C3)cc(N2CC[C@@H](c3n[nH]c4ncccc34)[C@@H](F)C2)n1` (single isomer, unassigned) [Example 78], the IC50 was 8.42 nM. Compound `N#CC1(COc2nc(C(=O)NC34CC(C3)C4)nc(N3CCC(COc4cccnc4N)CC3)n2)CC1` [Example 90, 4-(4-{[(2-aminopyridin-3-yl)oxy]methyl}piperidin-1-yl)-N-(bicyclo[1.1.1]pent-1-yl)-6-[(1-cyanocyclopropyl)methoxy]-1,3,5-triazine-2-carboxamide] has an IC50 of 6.98 nM. `COc1ccnc2[nH]nc(C3CCN(c4cc(C(=O)N[C@@H](C)C(F)(F)F)nc(OC[C@H]5CCO5)n4)CC3)c12` [Example 381, 6-[4-(4-methoxy-1H-pyrazolo[3,4-b]pyridin-3-yl)piperidin-1-yl]-2-[(2R)-oxetan-2-ylmethoxy]-N-[(2S)-1,1,1-trifluoropropan-2-yl]pyrimidine-4-carboxamide] showed an IC50 of 0.77 nM. In the case of `C[C@H](CO)NC(=O)c1cc(N2CCC(c3n[nH]c4ncccc34)CC2)nc(OCC2CC2)n1` [Example 72, 2-(cyclopropyl-methoxy)-N-[(2R)-1-hydroxypropan-2-yl]-6-[4-(1H-pyrazolo[3,4-b]pyridin-3-yl)piperidin-1-yl]pyrimidine-4-carboxamide], the IC50 is reported as 4.31 nM. `C[C@H](CO)NC(=O)c1cc(N2CCC(c3n[nH]c4ncccc34)CC2)nc(OC[C@@H]2CCOC2)n1` [Example 382, N-[(2R)-1-hydroxypropan-2-yl]-6-[4-(1H-pyrazolo[3,4-b]pyridin-3-yl)piperidin-1-yl]-2-[(3R)-tetrahydrofuran-3-ylmethoxy]pyrimidine-4-carboxamide] was tested, and the IC50 was 154 nM. For `N#CC1(COc2nc(C(=O)NC34CC(C3)C4)nc(N3CCC(c4n[nH]c5ncccc45)CC3)n2)CC1` [Example 59, N-(bicyclo[1.1.1]pent-1-yl)-4-[(1-cyanocyclopropyl)methoxy]-6-[4-(1H-pyrazolo[3,4-b]pyridin-3-yl)piperidin-1-yl]-1,3,5-triazine-2-carboxamide], the IC50 was 2.74 nM. Compound `COc1ccnc2[nH]cc(C3CCN(c4nc(OC[C@H]5C[C@H]5C#N)nc(C(=O)NCC(F)(F)F)n4)CC3)c12` [Example 380, 4-{[(1S,2R)-2-cyanocyclopropyl]methoxy}-6-[4-(4-methoxy-1H-pyrrolo[2,3-b]pyridin-3-yl)piperidin-1-yl]-N-(2,2,2-trifluoroethyl)-1,3,5-triazine-2-carboxamide] has an IC50 of 0.72 nM.

Reference: patent publication US9593097B2, “Axl inhibitors” (Pfizer Inc., priority 2014, dated 2017)
